Experimental findings from paper PMC6542280 (Bioorganic & medicinal chemistry letters, 2019) are described below.

The assay has as its target T1, Nutrient-deprivation autophagy factor-1 (NAF-1, miner1) (Homo sapiens, UniProt Q8N5K1).
T1 sequence (Q8N5K1 57-135 limits assumed): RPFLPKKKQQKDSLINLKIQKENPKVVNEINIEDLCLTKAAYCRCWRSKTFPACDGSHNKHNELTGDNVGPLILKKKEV
The assay can be described thus: scintillation proximity assay, [3H]rosiglitazone displacement. Type of assay: binding. A general note: SPA uses beads or plates that emit light when radiolabelled molecules are held near them.

Regarding NL-1, the IC50 (usually the point on the concentration scale where inhibition reaches its midpoint) is 29.8 µM.
